Reference: publication PMC10322702 (Nature Chemistry, 2023)
“And” between values parts separate entries of the source, which are not always exact repeats. Equal values may be shown once. “Also recorded” adds a separate entry of the source. Numbered stars: 1 amine (or outer) side, 2 acyl side, 3 side chain; on linkers, the order of the positions; unused ones are H or OH. Bridge positions count the residues as written; N and C are the ends. Square brackets hold non-standard residues; d marks the D form. Peptide text beside a SMILES is read from it. Acbc(cis-1,3) = O=C([C@H]1C[C@@H](N[*:1])C1)[*:2]; X1 = O=C([C@@H]1CC[C@H](N[*:1])C1)[*:2]

Tests used:
SARS-CoV-2 M^pro [1] = molecular target: T1, SARS-CoV-2 M^pro (Severe acute respiratory syndrome coronavirus 2, UniProt P0DTD1); test: biochemical; format: biochemical
SARS-CoV-2 M^pro [2] = molecular target: T1, SARS-CoV-2 M^pro; test: biochemical; format: binding; conditions: for kon: read-out: ka (kinetic association)
[3] = Serum stability assay in human serum (LC/MS)
[4] = human serum (Cosmo Bio, 12181201); conditions: 37 °C, up to 100 h
[5] = 37 °C, incubation time 1 h, relative to 0 h = 100%, technical replicates, 60 min
[6] = 37 °C, incubation time 2 h, relative to 0 h = 100%, technical replicates, 120 min
[7] = 37 °C, incubation time 4 h, relative to 0 h = 100%, technical replicates, 240 min
[8] = 37 °C, incubation time 8 h, relative to 0 h = 100%, technical replicates, 480 min
[9] = human, Remaining peptide (%), 37 °C, incubation time 1 h, relative to 0 h = 100%, technical replicates
[10] = human, Remaining peptide (%), 37 °C, incubation time 2 h, relative to 0 h = 100%, technical replicates
[11] = human, Remaining peptide (%), 37 °C, incubation time 4 h, relative to 0 h = 100%, technical replicates
[12] = human, Remaining peptide (%), 37 °C, incubation time 8 h, relative to 0 h = 100%, technical replicates
[13] = human, Remaining peptide (%), 37 °C, incubation time 24 h, relative to 0 h = 100%, technical replicates
[14] = 37 °C, incubation time 24 h, relative to 0 h = 100%, technical replicates, 1440 min
[15] = 37 °C, incubation time 50 h, relative to 0 h = 100%, technical replicates, 3000 min
[16] = 37 °C, incubation time 100 h, relative to 0 h = 100%, technical replicates, 6000 min
[17] = human, Remaining peptide (%), 37 °C, incubation time 50 h, relative to 0 h = 100%, technical replicates
[18] = human, Remaining peptide (%), 37 °C, incubation time 100 h, relative to 0 h = 100%, technical replicates

| Compound | IC50 (SARS-CoV-2 M^pro [1]) [nM] | Kd (SARS-CoV-2 M^pro [2]) [nM] | kd (kinetic dissociation) (SARS-CoV-2 M^pro [2]) | kon (SARS-CoV-2 M^pro [2]) [M⁻¹ s⁻¹] | Remaining peptide (%) [3, 5] | Remaining peptide (%) [3, 6] | Remaining peptide (%) [3, 7] | Remaining peptide (%) [3, 8] | half-life at 10 μM ([3]; human) [h] | remaining at 1 h, 10 μM [3, 9] [%] | remaining at 2 h, 10 μM [3, 10] [%] | remaining at 4 h, 10 μM [3, 11] [%] | remaining at 8 h, 10 μM [3, 12] [%] | remaining at 24 h, 10 μM [3, 13] [%] | Remaining peptide (%) [3, 14] | Remaining peptide (%) [3, 15] | Remaining peptide (%) [3, 16] | remaining at 50 h, 10 μM [3, 17] [%] | remaining at 100 h, 10 μM [3, 18] [%] | inhibition at 1.86 µM (SARS-CoV-2 M^pro [1]) [%] | further results |
| --- | --- | --- | --- | --- | --- | --- | --- | --- | --- | --- | --- | --- | --- | --- | --- | --- | --- | --- | --- | --- | --- |
| CC(C)C[C@@H]1NC(=O)[C@@H](Cc2ccc(O)cc2)NC(=O)CSC[C@H](C(N)=O)NC(=O)[C@H](C)NC(=O)[C@H](C)NC(=O)[C@H](Cc2ccc(O)cc2)NC(=O)[C@H](CCCNC(=N)N)NC(=O)[C@H](Cc2ccc(O)cc2)NC(=O)[C@H](C)NC(=O)[C@H](CO)NC(=O)[C@H](Cc2ccc(O)cc2)NC(=O)[C@H]([C@@H](C)O)NC(=O)[C@H](CO)NC(=O)[C@H](C)NC(=O)[C@H](Cc2ccc(O)cc2)NC(=O)[C@H](Cc2c[nH]cn2)NC1=O [GM3γ^210A] ({CH2CO}-[dY]LHYASTYSAYRYAA[dC]-NH2; thioether N-16) | 120 | 7.5 | 2.1 10^-3 s^-1 | 280000 | 35.60% and 33.84% | 15.90% and 15.53% | 6.44% and 7.19% | 2.01% | 0.59 | 33.1 | 17 | 7.23 | 2.04 | 0 | – | – | – | – | – | – | inhibition at 0.309 µM (SARS-CoV-2 M^pro [1]): 77.9%; inhibition at 0.933 µM (SARS-CoV-2 M^pro [1]): 95.6%; inhibition at 2.75 µM (SARS-CoV-2 M^pro [1]): 100%; inhibition at 8.32 µM (SARS-CoV-2 M^pro [1]): 100%; fold change in binding affinity relative to the original peptide (SARS-CoV-2 M^pro [2]): eightfold stronger; Remaining peptide (%) ([3]; 37 °C, incubation time 0.5 h, relative to 0 h = 100%, technical replicates, 30 min): 47.41% and 46.64%; remaining at 0.5 h, 10 μM ([3]; human, Remaining peptide (%), 37 °C, incubation time 0.5 h, relative to 0 h = 100%, technical replicates): 44.4% |
| CC(C)C[C@@H]1NC(=O)[C@H](CC(N)=O)NC(=O)[C@H](CC(C)C)NC(=O)[C@H]2C[C@H](C2)NC(=O)[C@H](CCC(N)=O)NC(=O)[C@H](Cc2ccccc2)NC(=O)[C@@H](Cc2ccc(O)cc2)NC(=O)CSC[C@H](C(N)=O)NC(=O)CNC(=O)[C@@H]2CCCN2C(=O)[C@H](CCCNC(=N)N)NC(=O)[C@H](Cc2ccc(O)cc2)NC(=O)CNC1=O [GM4H3Q] ({CH2CO}-[dY]FQ[Acbc(cis-1,3)]LNLGYRPG[dC]-NH2; thioether N-13) | 10 | 0.86 | 1.0 10^-3 s^-1 | 1.2e+06 | 98.03% and 94.19% | 84.19% and 81.93% | 100.31% and 98.70% | 92.68% and 86.88% | 82 | 93.4 | 87.5 | 99.9 | 93.9 | 81.3 | 77.71% and 81.24% | 64.07% and 63.70% | 43.40% and 43.85% | 70.1 | 44.2 | – | fold more potent inhibitory activity relative to GM4 (SARS-CoV-2 M^pro [1]): fivefold more potent; inhibition at 0.186 µM (SARS-CoV-2 M^pro [1]): 96%; inhibition at 0.55 µM (SARS-CoV-2 M^pro [1]): 100%; inhibition at 1.66 µM (SARS-CoV-2 M^pro [1]): 100%; inhibition at 5.01 µM (SARS-CoV-2 M^pro [1]): 100%; fold change in binding affinity relative to the original peptide (SARS-CoV-2 M^pro [2]): sixfold stronger |
| CC(C)C[C@@H]1NC(=O)[C@H](C)NC(=O)[C@H](Cc2c[nH]cn2)NC(=O)[C@H](Cc2ccccc2)NC(=O)[C@@H](Cc2ccc(O)cc2)NC(=O)CSC[C@H](C(N)=O)NC(=O)CNC(=O)[C@@H]2CCCN2C(=O)[C@H](CCCNC(=N)N)NC(=O)[C@H](Cc2ccc(O)cc2)NC(=O)CNC(=O)[C@H](CC(C)C)NC(=O)[C@H](CC(N)=O)NC1=O [GM4γ^14A] ({CH2CO}-[dY]FHALNLGYRPG[dC]-NH2; thioether N-13) | 10 | 2.4 | 2.6 10^-3 s^-1 | 1.1e+06 | 80.98% and 76.08% | 68.35% and 66.59% | 75.33% and 71.01% | 60.41% and 56.42% | 11 | 74.2 | 67.6 | 66.7 | 53.6 | 32.3 | 37.15% and 33.37% | 12.36% and 12.37% | 2.74% and 5.40% and 2.53% | 12.3 | – | 100 | inhibition at 0.209 µM (SARS-CoV-2 M^pro [1]): 100%; inhibition at 5.62 µM (SARS-CoV-2 M^pro [1]): 100%; inhibition at 16.6 µM (SARS-CoV-2 M^pro [1]): 100%; inhibition at 50.1 µM (SARS-CoV-2 M^pro [1]): 100%; inhibition at […] (SARS-CoV-2 M^pro [1]): 100% |
| CC[C@H](C)[C@@H]1NC(=O)[C@H](Cc2ccc(O)cc2)NC(=O)[C@H](CC(C)C)NC(=O)[C@H](CC(=O)O)NC(=O)[C@H](CCCNC(=N)N)NC(=O)[C@H](Cc2ccccc2)NC(=O)[C@@H]2CC[C@@H](C2)NC(=O)[C@H](Cc2c[nH]cn2)NC(=O)[C@H](Cc2ccccc2)NC(=O)[C@@H](Cc2ccc(O)cc2)NC(=O)CSC[C@H](C(N)=O)NC(=O)CNC(=O)[C@H](CC(C)C)NC1=O [GM5] ({CH2CO}-[dY]FH[X1]FRDLYILG[dC]-NH2; thioether N-13) | 40 | 5.2 | 1.2 10^-3 s^-1 | 240000 | 101.31% and 104.14% | – | 77.04% and 80.18% | 83.97% and 82.30% | 32 | 101 | – | 78.7 | 83 | 58.4 | 66.27% and 59.32% | 29.51% and 26.23% | 20.75% and 19.44% | 30.7 | 19.9 | 100 | inhibition at 5.62 µM (SARS-CoV-2 M^pro [1]): 100%; inhibition at 16.6 µM (SARS-CoV-2 M^pro [1]): 100%; inhibition at 50.1 µM (SARS-CoV-2 M^pro [1]): 100%; inhibition at […] (SARS-CoV-2 M^pro [1]): 100% |
| CC[C@H](C)[C@@H]1NC(=O)[C@H](Cc2ccc(O)cc2)NC(=O)[C@H](CC(C)C)NC(=O)[C@H](CC(=O)O)NC(=O)[C@H](CCCNC(=N)N)NC(=O)[C@H](Cc2ccccc2)NC(=O)[C@H](C)NC(=O)[C@H](Cc2c[nH]cn2)NC(=O)[C@H](Cc2ccccc2)NC(=O)[C@@H](Cc2ccc(O)cc2)NC(=O)CSC[C@H](C(N)=O)NC(=O)CNC(=O)[C@H](CC(C)C)NC1=O [GM5γ^24A] ({CH2CO}-[dY]FHAFRDLYILG[dC]-NH2; thioether N-13) | 50 | 61 | 8.7 10^-3 s^-1 | 140000 | 85.94% and 86.10% | 65.85% and 75.80% | 83.58% and 80.89% | 69.62% and 72.73% | 21 | 89.2 | 75.3 | 82.3 | 70.9 | 45.5 | 51.61% and 49.70% | 25.37% and 24.58% | 8.38% and 8.41% | 23 | 7.6 | 100 | inhibition at 5.62 µM (SARS-CoV-2 M^pro [1]): 100%; inhibition at 16.6 µM (SARS-CoV-2 M^pro [1]): 100%; inhibition at 50.1 µM (SARS-CoV-2 M^pro [1]): 100%; inhibition at […] (SARS-CoV-2 M^pro [1]): 100% |
| ^AcyFHA LNLGYRPGc-NH2 ({CH2CO}-[dY]FHALNLGYRPG[dC]-NH2; thioether N-13) | – | – | – | – | – | – | – | – | – | – | – | – | – | – | – | – | – | – | – | – | cleaved bond [4]: F2-H3, 24 h; also recorded: L5-N6, 24 h; also recorded: P11-G12, 24 h; also recorded: G12-c13, 24 h |
